The values below come from patent US20030054047A1 (priority 2001, published 2003).

≈ marks a conversion by molar mass, not a printed value.

The subject of assay [1] is Influenza virus A/90-15. In words: microbe, parasite or virus in culture. The format is cell-based, Influenza virus type A (H3N2) strain Jifeng A/90-15.
Assay [2] deals with Influenza virus B/97-13. In words: microbe, parasite or virus in culture. It counts as cell-based, Influenza virus type B strain Jifeng B/97-13.
The test system of assay [3] is Influenza virus A/90-15. In words: Preventive assay: MDCK cells pre-treated 24 hours, then infected, influenza A. It counts as cell-based, Influenza virus type A (H3N2) strain Jifeng A/90-15. To be noted: drug added 24 hours before infection. The procedure: (§1) Preventive assay: Cell culture plate pre-treated with different concentrations of sample solutions for 24 hours, washed out the drugs, then infected with viruses, incubated, washed, observed and calculated the inhibition % as above.

The subject of assay [4] is Influenza virus B/97-13. In words: Preventive assay: MDCK cells pre-treated 24 hours, then infected, influenza B. It counts as cell-based, Influenza virus type B strain Jifeng B/97-13. To be noted: drug added 24 hours before infection. The procedure:
as §1

Regarding `NC(=O)c1ncn([C@@H]2O[C@H](CO)[C@@H](O)[C@H]2O)n1` [Ribavirin, 1-β-D-ribafuranosyl-1,2,4-triazole-3-carboxamide], the “Inhibition of virus CPE (in words)” value in assay [1] and in assay [2] was “effective” each time. For the same molecule, the IC50 was 70 ± 40 µg/mL (≈ 287 µM) in assay [1] (unidentified influenza virus, MDCK, read-out: Influenza virus A/90-15 IC50) and 60 ± 30 µg/mL (≈ 246 µM) in assay [2] (unidentified influenza virus, MDCK, read-out: Influenza virus B/97-13 IC50). Also, the “Activity on pretreatment for 24 hours (in words)” value in assay [3] and in assay [4] was “effective” each time.
